# In US9422238B2, “ICMT inhibitors” (National University of Singapore, priority 2012, dated 2016):
# Values joined by “and” are separate entries in the source; they are usually repeats but may differ in a detail not shown here. Identical values can stand only once. Like-named read-outs stand apart in the source and are kept apart here.
# Key:
# [1] = system: PC3 cells; assay: In vitro scratch assay (cell migration); type: cell-based, human; settings: PC3, 24 h
# Method: PC3 cells were seeded at 100 000 cells per well in a 6-well plate in media (DMEM, high glucose, 10% FBS, 50 μg/mL penicillin, 50 μg/mL streptomycin) and incubated (37° C., 5% CO2) for 36 hours until confluent. The cell monolayer was scraped in a straight line with a 1 mL pipette tip to create a “scratch” which was also marked at the bottom of the plate with a marker pen. The media was removed from the well which was then washed with PBS. Test compound in 2 mL DMEM (high glucose, 5% FBS) was added to each well (DMSO concentration of 0.05% v/v per well) and the plates were incubated at 37° C., 5% CO2. Control wells with PC3 monolayers were similarly treated. Scratches of approximately the same size were made on control and treated wells. Photographs of the scratched surfaces in wells were taken with a microscope fitted with a camera at the start of incubation and after 24 h. Magnification was kept constant at 40× for all acquired images. These were further analyzed by downloading the images into a Powerpoint® file and measuring (on-screen) the distances between one side of the scratch and the other. For each “scratch”, four or five distances were measured across the length of the scratch in the initial (0 h) image and these same distances were monitored after 24 h. Each compound was tested at 3 concentrations with 3 repeats made for each concentration.
# [2] = molecular target: T1, Isoprenylcysteine carboxyl methyltransferase (Icmt) (Homo sapiens, UniProt O60725); assay: Icmt inhibition, scintillation proximity assay with BFC and [3H]SAM; type: biochemical; settings: for IC50: read-out: IC50 Icmt
# T1 construct: made in house; host or cells: Sf9 (Spodoptera frugiperda) insect cells; membrane preparation provided by Prof PJ Casey (Duke University / Duke-NUS)
# T1 sequence (O60725 whole entry, species assumed): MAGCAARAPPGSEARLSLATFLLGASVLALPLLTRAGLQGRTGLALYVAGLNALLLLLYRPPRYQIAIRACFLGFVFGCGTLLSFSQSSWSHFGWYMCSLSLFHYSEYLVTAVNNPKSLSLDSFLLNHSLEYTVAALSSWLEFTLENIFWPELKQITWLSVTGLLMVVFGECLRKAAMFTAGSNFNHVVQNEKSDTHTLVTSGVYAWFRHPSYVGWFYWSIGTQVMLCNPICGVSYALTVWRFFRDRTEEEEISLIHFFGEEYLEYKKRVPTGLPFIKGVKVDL
# Method: Isoprenylcysteine carboxyl methyltransferase (Icmt) was provided by Prof PJ Casey of Duke University, NC. S-Adenosylmethionine (SAM), magnesium chloride Hexahydrate (MgCl2), tartrazine, 4-(2-hydroxyethyl)-1-piperazineethanesulfonic acid (HEPES), dimethyl sulfoxide (DMSO) and dithiotreitol (DTT) were purchased from Sigma (Mo, USA). [^3H] S-Adenosylmethionine, [^3H] Biotin and Streptavidin PVT SPA Beads were purchased from PerkinElmer (Waltham, Mass.). Assays were performed in black small volume 384 well microtitre plates from PerkinElmer.
# Stocks of Icmt membrane protein (30 μg/μL) stored at −80° C. were thawed at 37° C. and placed on ice. The Icmt membrane protein was diluted in assay buffer (70 mM HEPES, 100 mM NaCl, 5 mM Mg Cl2 and 3 mM DTT, pH 7.5) to a 0.03 μg/μL working concentration and added to the wells of a microtitre plate (5 μl/well). To each wells 20 μl of the reaction buffer was added. The reaction was initiated with the addition of 5 μL of substrate solution containing BFC (6 μM), SAM (3 μM) and 30 μCi/mL [^3H] SAM (all of these reagents were stored at −20° C., SAM reagents thawed on ice, BFC thawed at RT). The plate was incubated at 37° C. for 30 minutes. The reaction was stopped with the addition of 15 μL of stop solution containing SAM (150 μM) and Streptavidin SPA beads (20 mg/mL). Following overnight incubation at ambient temperature radioactivity was counted on a Microbeta Trilux™ (Perkin Elmer, Turku, Finland).
# Sf9 (Spodoptera frugiperda ovarian) membranes containing recombinant Icmt were provided by Prof PJ Casey (Duke University, NC and Duke-NUS Graduate Medical School). S-Adenosylmethionine (SAM), magnesium chloride hexahydrate, tartrazine, 4-(2-hydroxyethyl)-1-piperazineethanesulfonic acid (HEPES) and dithiotreitol (DTT) were purchased from Sigma (Mo, USA). [^3H] S-Adenosylmethionine, [^3H] biotin and streptavidin PVT SPA Beads were purchased from PerkinElmer (Waltham, Mass.). Biotinylated farnesylcysteine was synthesized as described in an earlier report. Assays were performed in black 384-well microtitre plates from PerkinElmer.
# A vial of Icmt membrane protein (30 μg/μL) stored at −80° C. was thawed at 37° C. and placed on ice. The protein was diluted in assay buffer (70 mM HEPES, 100 mM NaCl, 5 mM MgCl2, 3 mM DTT, pH 7.5) to 0.03 μg/μL and aliquots were added to each well (5 μL/well), followed by 20 μL of the assay buffer. The reaction was initiated by adding 5 μL of a solution containing biotinylated BFC (6 μM), SAM (3 μM) and 30 μCi/mL [^3H] SAM. These reagents were stored at −20° C. and thawed on ice (SAM, [^3H] SAM) or at room temperature (BFC). The plate was incubated at 37° C. for 30 minutes after which the reaction was quenched by adding 15 μL of a solution comprising SAM (150 μM) and streptavidin SPA beads (20 mg/mL). After overnight incubation at ambient temperature, radioactivity was counted (Microbeta Trilux™, Perkin Elmer, Turku, Finland). The degree of inhibition was assessed from the radioactivity obtained in presence of test compound compared to that obtained from the control sample […]. Two independent determinations were made for each test compound.
# [3] = system: Human hepatocellular carcinoma HepG2 cells; assay: Cell viability (MTS, 72 h); type: cell-based
# Method: Cell viability was determined from the expression:
# The plot was constrained to ≧0 and ≦100%.
# Human hepatocellular carcinoma HepG2 and human pancreatic cancer MIA PACA II cells were obtained from ATCC (Rockville, Md.). They were grown in DMEM (high glucose, Invitrogen) supplemented with 10% FBS, 50 μg/mL penicillin and 50 μg/mL streptomycin, 37° C., 5% CO2 until they reached 80-90% confluency, after which they were subcultured. Passage numbers were kept within 7-14 passages for both cell types.
# [4] = Parallel Artificial Membrane Permeability Assay (PAMPA); settings: for Papp at 16 h: PAMPA, pH 7.4
# Method: Briefly, determinations were carried out on MultiScreen-IP PAMPA assay (donor) plates (MAIPNTR10) and MultiScreen Receiver Plates (MATRNPS50) from Millipore Corporation (USA) with 1% lecithin (L-α-phosphatidylcholine from lyophilized powder of egg yolk, Sigma Aldrich, USA) in dodecane (ReagentPlus®, Sigma Aldrich, USA) as lipid barrier. 5 μL of 1% lecithin in dodecane was dispensed into the wells of the donor plates. […] The mobile phase was Milli-Q water (0.1% formic acid) and acetonitrile (0.1% formic acid), run on gradient.
# Pe was obtained from Equation 1:
# [formula] Where VA and VD are the volumes of acceptor (cm^3) and donor (cm^3) wells respectively, A is the area of the surface area of the membrane (0.24 cm^2), t is the permeation time (s); S is the fraction of sample remaining in the donor and acceptor wells after permeation time and is determined from Equation 2, CA and CD are the concentrations (μM) of test/reference compound in acceptor and donor wells respectively.
# The Pe of each compound was obtained from at least 3 separate experiments using no less than 2 different stock solutions. For each independent determination, triplicates (3 wells) were run for each compound.
# [5] = Table 3, mean of two or more determinations (SD)
# [6] = HepG2, Table 6, mean (SD), read-out: IC50 (μM) HepG2
# [7] = HepG2, further testing, 72 h, mean (SD), read-out: IC50 HepG2
# [8] = HepG2, read-out: in vitro IC50 (horizontal line in FIGS. 14 and 15), cell line not stated
Compound,gap closure in scratch assay [1],"IC50 [2, 5]","IC50 ([2]; further testing, mean (SD))","IC50 [3, 6]","IC50 [3, 7]","IC50 [3, 8]",Papp at 16 h [4],"PAMPA Pe (×10^−6 cm/s) ([4]; pH 7.4, 16 h agitation, 1% lecithin in dodecane)",fold higher IC50 Icmt than cysmethynil ([2]; ratio of IC50 Icmt)
"CCCCCCCCn1cc(CC(N)=O)c2cc(-c3cccc(C)c3)ccc21 [Cysmethynil, 2-[5-(3-methylphenyl)-1-octyl-1H-indolo-3-yl]acetamide, reference compound]","the gap closed to some degree in the presence of 17.5 and 20 μM cysmethynil after 24 h, but remained open in cells treated with 22.5 μM cysmethynil",1800 nM,1900 nM,21.8 µM,21.8 µM,22 µM,,,
"CCCCCCCCn1cc(CN(CC)CC)c2cc(-c3cnc(N)nc3)ccc21 [Compound 8-12, 5-(3-Diethylaminomethyl-1-octyl-1H-indol-5-yl)-pyrimidin-2-ylamine]",the gap remained “open” at 2 and 2.5 μM but closed to some extent at a lower concentration of 1.5 μM,780 nM,860 nM,1.65 µM,1.65 µM,1.7 µM,14.2 ×10⁻⁶ cm/s,14.2 ×10^−6 cm/s and 14.2 (±1.4) ×10^−6 cm/s,
"CCCCCCCCn1c2c(c3cc(-c4cnc(N)nc4)ccc31)CN(C)CC2 [Compound 305, 8-(2′-amino-pyrimidin-5′-yl)-2-methyl-5-n-octyl-1,2,3,4-tetrahydropyrido[4,3-b]indole]",,3300 nM,,,1.73 µM,,19.7 ± 0.56 ×10⁻⁶ cm/s,,about 2
